Laboratory results from ChEMBL document CHEMBL1287797, “Design and synthesis of harzialactone analogues: promising anticancer agents” (2010).

Columns and labels:
Type in all cases: functional
[1] = Anticancer activity against mouse P388D1 cells assessed as inhibition of cell growth at 10 ug/ml by MTT assay
HeLa [2] = experiment: Anticancer activity against human HeLa cells assessed as inhibition of cell growth at 20 ug/ml by MTT assay
HL-60 [3] = experiment: Anticancer activity against human HL60 cells assessed as inhibition of cell growth at 20 ug/ml by MTT assay
ZR-75-1 [4] = experiment: Anticancer activity against human ZR-75-1 cells assessed as inhibition of cell growth at 20 ug/ml by MTT assay
COLO 205 [5] = experiment: Anticancer activity against human COLO205 cells assessed as inhibition of cell growth at 20 ug/ml by MTT assay
[6] = Anticancer activity against mouse P388D1 cells assessed as inhibition of cell growth at 20 ug/ml by MTT assay
HeLa [7] = experiment: Anticancer activity against human HeLa cells assessed as inhibition of cell growth at 40 ug/ml by MTT assay
HL-60 [8] = experiment: Anticancer activity against human HL60 cells assessed as inhibition of cell growth at 40 ug/ml by MTT assay
ZR-75-1 [9] = experiment: Anticancer activity against human ZR-75-1 cells assessed as inhibition of cell growth at 40 ug/ml by MTT assay
COLO 205 [10] = experiment: Anticancer activity against human COLO205 cells assessed as inhibition of cell growth at 40 ug/ml by MTT assay
[11] = Anticancer activity against mouse P388D1 cells assessed as inhibition of cell growth at 40 ug/ml by MTT assay
HeLa [12] = experiment: Anticancer activity against human HeLa cells assessed as inhibition of cell growth at 60 ug/ml by MTT assay
HL-60 [13] = experiment: Anticancer activity against human HL60 cells assessed as inhibition of cell growth at 60 ug/ml by MTT assay
ZR-75-1 [14] = experiment: Anticancer activity against human ZR-75-1 cells assessed as inhibition of cell growth at 60 ug/ml by MTT assay
COLO 205 [15] = experiment: Anticancer activity against human COLO205 cells assessed as inhibition of cell growth at 60 ug/ml by MTT assay
[16] = Anticancer activity against mouse P388D1 cells assessed as inhibition of cell growth at 60 ug/ml by MTT assay
HeLa [17] = experiment: Anticancer activity against human HeLa cells assessed as inhibition of cell growth at 80 ug/ml by MTT assay
HL-60 [18] = experiment: Anticancer activity against human HL60 cells assessed as inhibition of cell growth at 80 ug/ml by MTT assay
ZR-75-1 [19] = experiment: Anticancer activity against human ZR-75-1 cells assessed as inhibition of cell growth at 80 ug/ml by MTT assay
COLO 205 [20] = experiment: Anticancer activity against human COLO205 cells assessed as inhibition of cell growth at 80 ug/ml by MTT assay
[21] = Anticancer activity against mouse P388D1 cells assessed as inhibition of cell growth at 80 ug/ml by MTT assay
HeLa [22] = experiment: Anticancer activity against human HeLa cells assessed as inhibition of cell growth at 5 ug/ml by MTT assay
HL-60 [23] = experiment: Anticancer activity against human HL60 cells assessed as inhibition of cell growth at 5 ug/ml by MTT assay
ZR-75-1 [24] = experiment: Anticancer activity against human ZR-75-1 cells assessed as inhibition of cell growth at 5 ug/ml by MTT assay
COLO 205 [25] = experiment: Anticancer activity against human COLO205 cells assessed as inhibition of cell growth at 5 ug/ml by MTT assay
[26] = Anticancer activity against mouse P388D1 cells assessed as inhibition of cell growth at 5 ug/ml by MTT assay
HeLa [27] = experiment: Anticancer activity against human HeLa cells assessed as inhibition of cell growth at 100ug/ml by MTT assay
HL-60 [28] = experiment: Anticancer activity against human HL60 cells assessed as inhibition of cell growth at 100ug/ml by MTT assay
ZR-75-1 [29] = experiment: Anticancer activity against human ZR-75-1 cells assessed as inhibition of cell growth at 100ug/ml by MTT assay
COLO 205 [30] = experiment: Anticancer activity against human COLO205 cells assessed as inhibition of cell growth at 100ug/ml by MTT assay
[31] = Anticancer activity against mouse P388D1 cells assessed as inhibition of cell growth at 100ug/ml by MTT assay
COLO 205 [32] = experiment: Anticancer activity against human COLO205 cells assessed as inhibition of cell growth at 10 ug/ml by MTT assay
ZR-75-1 [33] = experiment: Anticancer activity against human ZR-75-1 cells assessed as inhibition of cell growth at 10 ug/ml by MTT assay
HL-60 [34] = experiment: Anticancer activity against human HL60 cells assessed as inhibition of cell growth at 10 ug/ml by MTT assay
HeLa [35] = experiment: Anticancer activity against human HeLa cells assessed as inhibition of cell growth at 10 ug/ml by MTT assay

Row | SMILES | inhibition at 10 µg/mL [1] | inhibition at 20 µg/mL (HeLa [2]) | inhibition at 20 µg/mL (HL-60 [3]) | inhibition at 20 µg/mL (ZR-75-1 [4]) | inhibition at 20 µg/mL (COLO 205 [5]) | inhibition at 20 µg/mL [6] | inhibition at 40 µg/mL (HeLa [7]) | inhibition at 40 µg/mL (HL-60 [8]) | inhibition at 40 µg/mL (ZR-75-1 [9]) | inhibition at 40 µg/mL (COLO 205 [10]) | inhibition at 40 µg/mL [11] | inhibition at 60 µg/mL (HeLa [12]) | inhibition at 60 µg/mL (HL-60 [13]) | inhibition at 60 µg/mL (ZR-75-1 [14]) | inhibition at 60 µg/mL (COLO 205 [15]) | inhibition at 5 µg/mL (HeLa [22]) | inhibition at 5 µg/mL (HL-60 [23]) | inhibition at 5 µg/mL (ZR-75-1 [24]) | inhibition at 5 µg/mL (COLO 205 [25]) | inhibition at 5 µg/mL [26] | other results
1 | O=C1O[C@@H](CCc2ccccc2)C[C@H]1O | 31.5% | 31.3% | 36.8% | 36.1% | 22.8% | 35.2% | 34% | 38.7% | 37.4% | 25.4% | 37.6% | 39% | 40% | 37.9% | 36% | 23.4% | 28.4% | 29.5% | 9.18% | 27.8% | inhibition at 60 µg/mL [16]: 38.3%; inhibition at 80 µg/mL (HeLa [17]): 41%; inhibition at 80 µg/mL (HL-60 [18]): 43.2%; inhibition at 80 µg/mL (ZR-75-1 [19]): 43.6%; inhibition at 80 µg/mL (COLO 205 [20]): 65.3%; inhibition at 80 µg/mL [21]: 40%; inhibition at 100 µg/mL (HeLa [27]): 62.4%; inhibition at 100 µg/mL (HL-60 [28]): 49%; inhibition at 100 µg/mL (ZR-75-1 [29]): 50.7%; inhibition at 100 µg/mL (COLO 205 [30]): 69.3%; inhibition at 100 µg/mL [31]: 45.1%; inhibition at 10 µg/mL (COLO 205 [32]): 16.8%; inhibition at 10 µg/mL (ZR-75-1 [33]): 35.7%; inhibition at 10 µg/mL (HL-60 [34]): 31%; inhibition at 10 µg/mL (HeLa [35]): 31.3%
2 | O=C1O[C@@H](CCc2ccc(Br)cc2)C[C@H]1O | 25.9% | 54.4% | 24.5% | 35.2% | 29.4% | 31.5% | 57.5% | 39.4% | 36.6% | 40.9% | 34.6% | 60.6% | 32.6% | 37% | 43.3% | 52.3% | 20.6% | 20.9% | 23.1% | 10.5% | inhibition at 60 µg/mL [16]: 40.1%; inhibition at 80 µg/mL (HeLa [17]): 62.5%; inhibition at 80 µg/mL (HL-60 [18]): 47.7%; inhibition at 80 µg/mL (ZR-75-1 [19]): 38.3%; inhibition at 80 µg/mL (COLO 205 [20]): 72.2%; inhibition at 80 µg/mL [21]: 40.7%; inhibition at 100 µg/mL (HeLa [27]): 69.1%; inhibition at 100 µg/mL (HL-60 [28]): 52.9%; inhibition at 100 µg/mL (ZR-75-1 [29]): 42.3%; inhibition at 100 µg/mL (COLO 205 [30]): 75.8%; inhibition at 100 µg/mL [31]: 52.5%; inhibition at 10 µg/mL (COLO 205 [32]): 26.2%; inhibition at 10 µg/mL (ZR-75-1 [33]): 33%; inhibition at 10 µg/mL (HL-60 [34]): 22.6%; inhibition at 10 µg/mL (HeLa [35]): 52.5%
3 | CO[C@@]12[C@H](COC(N)=O)C3=C(C(=O)C(C)=C(N)C3=O)N1C[C@@H]1N[C@@H]12 [MITOMYCIN] |  |  |  |  |  |  |  |  |  |  |  |  |  |  |  | 56.5% | 53.2% | 51.3% | 56.3% | 55.4% | 
